Here are results for eight molecules from ChEMBL document CHEMBL4819137, “Huprine Y - Tryptophan heterodimers with potential implication to Alzheimer's disease treatment” (Bioorg Med Chem Lett, 2021).

One test concerns HepG2. As to the kind of experiment: cells. Conditions: Homo sapiens, HepG2, 24 h; call rule not given here.
Test [1] deals with T1, Nitric oxide synthase 1 (Homo sapiens, UniProt P29475).
Description: Inhibition of recombinant human nNOS
For test [2], the target named is T2, Acetylcholinesterase (Homo sapiens, UniProt P22303).
Description: Inhibition of recombinant human AChE using acetylthiocholine as substrate by DTNB-reagent based Ellman's method
Another test deals with Cholinesterase (Homo sapiens, UniProt P06276).
Sequence of Cholinesterase (P06276 whole entry): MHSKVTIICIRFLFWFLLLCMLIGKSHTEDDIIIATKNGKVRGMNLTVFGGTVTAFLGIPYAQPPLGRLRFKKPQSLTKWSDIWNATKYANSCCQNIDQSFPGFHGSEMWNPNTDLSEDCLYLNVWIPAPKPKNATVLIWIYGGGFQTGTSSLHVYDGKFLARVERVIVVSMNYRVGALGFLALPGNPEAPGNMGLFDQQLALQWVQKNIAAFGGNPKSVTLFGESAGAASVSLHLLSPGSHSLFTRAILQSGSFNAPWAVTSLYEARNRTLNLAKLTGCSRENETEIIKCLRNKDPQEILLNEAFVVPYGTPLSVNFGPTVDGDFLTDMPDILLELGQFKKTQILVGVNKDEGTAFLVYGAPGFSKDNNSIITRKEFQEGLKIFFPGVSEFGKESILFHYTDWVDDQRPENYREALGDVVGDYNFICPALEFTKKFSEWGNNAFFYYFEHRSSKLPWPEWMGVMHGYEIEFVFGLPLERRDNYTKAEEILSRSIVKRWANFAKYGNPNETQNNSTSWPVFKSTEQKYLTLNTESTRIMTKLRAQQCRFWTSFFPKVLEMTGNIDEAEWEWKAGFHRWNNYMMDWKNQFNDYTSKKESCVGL
Test [3] deals with T2, Acetylcholinesterase. As to the kind of experiment: Non competitive type inhibition of human AChE assessed as inhibition constant using varying levels of acetylthiocholine as substrate by double reciprocal Lineweaver-Burk plot analysis.
Test [4] deals with T1, Nitric oxide synthase 1. This is another data set of the same source.
Description: Inhibition of recombinant human nNOS

pIC50, pKi: −log10 of the molar value.

T1 sequence (P29475 whole entry): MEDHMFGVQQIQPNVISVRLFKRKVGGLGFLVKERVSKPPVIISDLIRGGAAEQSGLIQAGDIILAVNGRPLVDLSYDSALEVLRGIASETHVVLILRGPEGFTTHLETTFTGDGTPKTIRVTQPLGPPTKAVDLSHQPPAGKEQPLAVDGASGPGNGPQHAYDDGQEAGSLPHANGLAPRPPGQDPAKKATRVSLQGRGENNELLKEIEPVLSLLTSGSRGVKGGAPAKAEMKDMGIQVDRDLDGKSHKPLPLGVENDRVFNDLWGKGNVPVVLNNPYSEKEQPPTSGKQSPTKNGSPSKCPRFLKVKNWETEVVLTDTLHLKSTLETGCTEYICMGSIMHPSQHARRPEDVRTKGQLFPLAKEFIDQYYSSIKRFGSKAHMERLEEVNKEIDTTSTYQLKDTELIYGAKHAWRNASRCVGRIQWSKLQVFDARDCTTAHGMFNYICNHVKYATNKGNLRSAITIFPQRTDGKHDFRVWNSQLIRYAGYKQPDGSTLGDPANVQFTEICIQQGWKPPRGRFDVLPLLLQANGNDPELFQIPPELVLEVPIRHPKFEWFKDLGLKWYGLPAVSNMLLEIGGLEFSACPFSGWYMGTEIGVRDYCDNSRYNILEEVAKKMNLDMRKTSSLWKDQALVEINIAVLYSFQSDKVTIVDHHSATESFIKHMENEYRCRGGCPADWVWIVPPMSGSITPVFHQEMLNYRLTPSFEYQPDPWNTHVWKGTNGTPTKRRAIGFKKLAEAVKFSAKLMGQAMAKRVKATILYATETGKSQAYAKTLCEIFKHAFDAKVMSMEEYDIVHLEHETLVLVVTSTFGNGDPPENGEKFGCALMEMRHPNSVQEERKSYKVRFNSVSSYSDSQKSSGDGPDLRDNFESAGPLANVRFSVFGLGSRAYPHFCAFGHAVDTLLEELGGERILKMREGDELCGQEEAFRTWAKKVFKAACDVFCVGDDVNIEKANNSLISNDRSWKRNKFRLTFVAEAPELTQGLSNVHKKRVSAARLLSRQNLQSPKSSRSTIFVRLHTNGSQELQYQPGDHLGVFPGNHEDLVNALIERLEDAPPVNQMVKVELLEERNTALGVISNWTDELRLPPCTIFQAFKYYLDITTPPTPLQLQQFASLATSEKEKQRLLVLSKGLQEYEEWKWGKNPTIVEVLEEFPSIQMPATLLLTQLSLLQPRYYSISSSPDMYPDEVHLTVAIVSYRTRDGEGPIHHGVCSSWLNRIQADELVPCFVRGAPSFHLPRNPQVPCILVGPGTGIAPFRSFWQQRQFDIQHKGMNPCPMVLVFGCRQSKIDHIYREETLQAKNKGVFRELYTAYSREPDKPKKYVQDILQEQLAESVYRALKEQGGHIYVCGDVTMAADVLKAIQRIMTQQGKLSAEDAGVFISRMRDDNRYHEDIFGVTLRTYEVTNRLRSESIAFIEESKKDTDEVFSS
T2 sequence (P22303 whole entry): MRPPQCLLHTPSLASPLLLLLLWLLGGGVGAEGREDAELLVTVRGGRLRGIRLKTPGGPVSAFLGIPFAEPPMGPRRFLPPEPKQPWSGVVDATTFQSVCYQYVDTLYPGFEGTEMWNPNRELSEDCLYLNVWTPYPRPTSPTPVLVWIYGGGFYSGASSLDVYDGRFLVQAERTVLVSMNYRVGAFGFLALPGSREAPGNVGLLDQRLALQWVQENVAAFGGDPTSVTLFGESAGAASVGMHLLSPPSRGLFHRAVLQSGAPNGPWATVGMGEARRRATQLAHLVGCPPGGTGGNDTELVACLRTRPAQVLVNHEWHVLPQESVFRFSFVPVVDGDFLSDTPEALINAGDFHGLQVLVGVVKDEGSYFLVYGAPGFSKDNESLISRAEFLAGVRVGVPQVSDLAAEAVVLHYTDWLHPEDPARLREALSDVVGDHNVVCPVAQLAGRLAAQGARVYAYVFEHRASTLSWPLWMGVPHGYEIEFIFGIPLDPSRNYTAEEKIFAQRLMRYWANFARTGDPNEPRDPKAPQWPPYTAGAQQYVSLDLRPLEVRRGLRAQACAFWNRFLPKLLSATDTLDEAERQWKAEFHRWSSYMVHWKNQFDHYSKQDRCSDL
Description for HepG2: Cytotoxicity against human HepG2 cells assessed as reduction in cell viability measured after 24 hrs by MTT assay

Consider `COc1ccc2nc3c(c(N)c2c1)C1CC(C)=CC(C3)C1` (racemic), for which the pIC50 (in general, the negative decadic logarithm of the IC50, by convention in mol/L) is 4.83 in the test on HepG2 and 4.49 against Nitric oxide synthase 1 [1].

`CC1=CC2Cc3nc4cc(Cl)ccc4c(NCCCCCNC(=O)[C@@H](N)Cc4c[nH]c5ccccc45)c3C(C1)C2` (some centres undefined): the pIC50 on Acetylcholinesterase [2] was 7.64; in the test with HepG2, 5.32; against Nitric oxide synthase 1 [1], 4.62; against Cholinesterase, 7.17.

`CC1=CC2Cc3nc4cc(Cl)ccc4c(NCCCCCCNC(=O)[C@@H](N)Cc4c[nH]c5ccccc45)c3C(C1)C2` (some centres undefined): the pKi (in general, −log10 of the Ki, conventionally taken in molar units) at Acetylcholinesterase [3] is 7.64. For the same molecule, the pIC50 is 7.93 against Acetylcholinesterase [2], 5.25 with HepG2, 4.73 at Nitric oxide synthase 1 [1] and 7.34 on Cholinesterase.

Regarding `CC1=CC2Cc3nc4cc(Cl)ccc4c(NCCCCCCCNC(=O)[C@@H](N)Cc4c[nH]c5ccccc45)c3C(C1)C2` (some centres undefined), the pIC50 was 7.92 against Acetylcholinesterase [2], 4.91 with HepG2, 4.46 against Nitric oxide synthase 1 [1] and 7.07 on Cholinesterase.

Consider `CC1=CC2Cc3nc4cc(Cl)ccc4c(N)c3C(C1)C2` (racemic), for which the pIC50 in the test with HepG2 was 4.80.

On to `N[C@@H](Cc1c[nH]c2ccccc12)C(=O)NCCCCCCNc1c2c(nc3cc(Cl)ccc13)CCCC2`, for which the pIC50 against Nitric oxide synthase 1 [1] is 4.59.

As for `Nc1c2c(nc3cc(Cl)ccc13)CCCC2`, the IC50 result at Nitric oxide synthase 1 [4] is listed as “Not Active”.

Turning to `COc1ccc2nc3c(c(N)c2c1)CCCC3`, the IC50 entry against Nitric oxide synthase 1 [4] is given as “Not Active”.
